This is an account of results in patent US20020028938A1, “Prostaglandin endoperoxide H synthase biosynthesis inhibitors” (priority 1997, published 2002).

Values joined by “and” are separate entries in the source; they are usually repeats but may differ in a detail not shown here. Equal values may be shown once.

Series [1] concerns carrageenan induced paw edema. Briefly: Carrageenan induced paw edema (CPE) in rats. In kind it is in vivo. To be noted: 10 mpk oral, rat, 3 hours after carrageenan; for inhibition in vivo at 10 mg/kg: read-out: CPE % Inhib. @ 10 mpk. Summed up:
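Male Sprague-Dawley rats (170–190 g) dosed orally in PEG 400, 1 h before subplantar 0.1 ml 1% lambda carrageenan in right hindpaw. Plethysmographic paw volume at 0 and 3 h; edema as difference, % inhibition versus control mean (±SEM), Dunnett's test, ED50 by linear regression.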

Series [2] has as its target T1, recombinant human Cox-2 (r-hu Cox-2) (Homo sapiens, UniProt P35354).
T1 construct: made in house; host or cells: baculovirus/Sf9 insect cells (microsomes)
T1 sequence (P35354 18-604): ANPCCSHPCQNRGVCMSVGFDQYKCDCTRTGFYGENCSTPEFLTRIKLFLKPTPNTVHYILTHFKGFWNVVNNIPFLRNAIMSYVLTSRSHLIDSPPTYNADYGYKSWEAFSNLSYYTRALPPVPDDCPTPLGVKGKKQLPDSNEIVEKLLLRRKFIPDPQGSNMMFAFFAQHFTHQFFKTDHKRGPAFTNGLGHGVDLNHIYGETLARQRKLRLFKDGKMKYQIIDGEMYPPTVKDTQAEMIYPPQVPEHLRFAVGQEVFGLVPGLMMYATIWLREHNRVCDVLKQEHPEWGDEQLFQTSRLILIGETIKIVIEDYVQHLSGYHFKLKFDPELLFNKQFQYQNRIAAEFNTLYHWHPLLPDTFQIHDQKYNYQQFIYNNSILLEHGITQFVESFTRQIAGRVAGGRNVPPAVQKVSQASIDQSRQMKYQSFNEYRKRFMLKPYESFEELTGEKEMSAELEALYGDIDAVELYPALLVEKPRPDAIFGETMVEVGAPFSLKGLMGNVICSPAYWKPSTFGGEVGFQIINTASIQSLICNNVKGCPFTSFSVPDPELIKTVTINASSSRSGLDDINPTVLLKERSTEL
In words: Recombinant human PGHS-2 enzyme assay (RHUCX2). In kind it is biochemical. To be noted: for IC50: read-out: RHUCX2 IC50 (parenthetical value). Put shortly: (§1)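 PGE2 formed with and without drug quantified by EIA against matrix-matched standards; percent inhibition relative to control mean, IC50 by linear regression.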

Series [3] concerns air pouch prostaglandin biosynthesis (Cox-2). In words: Carrageenan induced air pouch prostaglandin biosynthesis model (CAP). In kind it is in vivo, rat. To be noted: 3 mpk, rat; for inhibition in vivo at 3 mg/kg: 4 h, read-out: CAP % Inhib. @ 3 mpk. Summed up:
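Male Sprague Dawley rats with dorsal air pouches (20 mL air day 0, 10 mL day 3) received 0.2% lambda carrageenan in saline into the pouch on day 7. Compounds dosed at 0.1 to 10 mg/kg 30 min before carrageenan; pouch lavaged 4 h later, prostaglandins measured by EIA. Percent inhibition versus control mean; ED50 by linear regression.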

Series [4] deals with T2, Human Whole Platelet Cyclooxygenase-1 (Homo sapiens, UniProt P23219).
T2 construct: from tissue; host or cells: human blood: isolated platelets (A4) or heparinised whole blood (A9)
In words: Human Whole Platelet Cyclooxygenase-1 assay (HWPX). In kind it is cell-based. To be noted: for IC50: read-out: HWPX IC50 (parenthetical value). Put shortly:
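Washed platelets from healthy-donor ACD blood were pre-incubated with compound for 10 min, then stimulated with calcium ionophore A23187 (8.8 μM final) for 10 min. Reaction stopped with cold 6 mM EDTA; thromboxane in supernatants quantified with a commercial kit.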

The target in series [5] is T3, recombinant human Cox-1 (r-hu Cox1) (Homo sapiens, UniProt P23219).
T3 construct: made in house; host or cells: baculovirus/Sf9 insect cells (microsomes)
In words: Recombinant human PGHS-1 enzyme assay (RHUCX1). In kind it is biochemical. Put shortly:
as §1

The target in series [6] is T4, human amnionic whole cell cyclooxygenase-2 (WISH cells) (Homo sapiens, UniProt P35354).
T4 construct: endogenous in cells; host or cells: human amnionic WISH cells, induced with IL-1beta
T4 sequence (P35354 18-604): T1 sequence (P35354 18-604)
Briefly: IL-1β induced PGE2 production in WISH cells. The class given is cell-based. To be noted: read-out: Wish IC50 (parenthetical value). Summed up:
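Confluent (80%) WISH cells were stimulated with 5 ng/ml IL-1β in serum-free Neuman-Tytell medium, with or without test compound in DMSO (0.01% v/v). PGE2 in the culture medium was measured by EIA against standards prepared in the same medium, read by optical density.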

The subject of series [7] is prostaglandin biosynthesis in vivo (pleural lavage eicosanoids). In words: Rat carrageenan pleural inflammation (CIP) model. To be noted: 10 mpk oral; for inhibition in vivo at 10 mg/kg: 4 h, read-out: CIP % Inhib. @ 10 mpk. As to the method:
For oral administration, test compounds were suspended on the day of use in 100% polyethyleneglycol (PEG 400) with a motorized homogenizer equipped with a Teflon-coated pestle (TRI-R Instrument, Jamaica, N.Y.).
To compare the mean responses of the treatment groups, analysis of variance was applied. Percent inhibition values were determined by comparing the individual treatment mean values to the mean of the control group. Linear regression was used to estimate IC50's/ED50's in appropriate assays.
Pleural inflammation was induced in male adrenalectomized Sprague-Dawley rats following the method of Vinegar et al., Fed. Proc. 1976, 35, 2447-2456. Animals were orally dosed with experimental compounds, 30 minutes prior to the intrapleural injection of 2% lambda carrageenan (Sigma Chemical Co., St. Louis Mo.). Four hours later the animals were euthanized and the pleural cavities lavaged with ice cold saline. The lavage fluid was then added to two volumes of ice cold methanol (final methanol concentration 66%) to lyse cells and precipitate protein. Eicosanoids were determined by EIA as described above.

Where [8] appears, read: 100 μM, read-out: RHUCX1 % Inh. at Dose.
Where [9] appears, read: read-out: RHUCX2 % Inh. at Dose.
Setting [10] is: read-out: HWPX % Inhib. at Dose.
Setting [11] is: read-out: RHUCX1 % Inh. at Dose.

T3 sequence (P23219 24-599): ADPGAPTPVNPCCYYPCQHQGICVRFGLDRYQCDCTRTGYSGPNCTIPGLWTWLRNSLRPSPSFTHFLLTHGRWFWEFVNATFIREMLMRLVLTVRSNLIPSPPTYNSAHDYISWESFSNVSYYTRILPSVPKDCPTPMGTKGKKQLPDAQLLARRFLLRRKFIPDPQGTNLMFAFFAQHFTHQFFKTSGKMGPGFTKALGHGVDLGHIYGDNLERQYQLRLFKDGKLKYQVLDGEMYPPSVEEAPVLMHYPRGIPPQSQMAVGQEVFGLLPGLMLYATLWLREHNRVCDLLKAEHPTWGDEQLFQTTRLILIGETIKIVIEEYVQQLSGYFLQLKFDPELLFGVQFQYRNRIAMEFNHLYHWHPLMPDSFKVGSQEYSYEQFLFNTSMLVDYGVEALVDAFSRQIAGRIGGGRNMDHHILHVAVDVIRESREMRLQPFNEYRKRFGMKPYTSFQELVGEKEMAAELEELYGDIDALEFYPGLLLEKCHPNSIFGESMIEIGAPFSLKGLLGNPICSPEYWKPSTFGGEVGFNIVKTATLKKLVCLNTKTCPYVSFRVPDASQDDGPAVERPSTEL
T2 sequence (P23219 24-599): as above

Consider `NS(=O)(=O)c1ccc(-c2cnn(-c3ccc(F)c(F)c3)c(=O)c2-c2ccc(F)cc2)cc1` [Example 400], for which the melting point was in the range of 177 to 181 °C. Further, the inhibition in vivo at 10 mg/kg in series [1] amounted to 41%. Further, the IC50 in series [2] was 142 nM. Moreover, the inhibition in vivo at 3 mg/kg in series [3] came out at 82.5%. For the same compound, the IC50 in series [4] was determined as 300 nM. Moreover, the inhibition at 100 µM in series [5] (setting [8]) stood at 27%. The IC50 in series [6] was found to be 26 nM. Besides, in series [7], the inhibition in vivo at 10 mg/kg amounted to 65%.

For `CS(=O)(=O)c1ccc(-c2cnn(-c3ccc(F)c(F)c3)c(=O)c2-c2ccc(F)cc2)cc1` [Example 182, 2-(3,4-Difluorophenyl)-4-(4-fluorophenyl)-5-[4-(methylsulfonyl)phenyl]-3(2H)-pyridazinone], the melting point lay within 109 to 110 °C. For the same compound, the inhibition in vivo at 10 mg/kg in series [1] was found to be 27%. Besides, in series [2], the IC50 is 70 nM. Further, the inhibition in vivo at 3 mg/kg in series [3] came to 98%. The half-inhibitory concentration (IC50) in series [5] (read-out: RHUCX1 IC50 (parenthetical value)) amounted to 5010 nM. In addition, the inhibition in vivo at 10 mg/kg in series [7] turned out to be 59%.

Compound `CS(=O)(=O)c1ccc(-c2cnn(CC(F)(F)F)c(=O)c2-c2ccc(Cl)cc2)cc1` [Example 58, 2-(2,2,2-Trifluoroethyl)-4-(4-chlorophenyl)-5-[4-(methylsulfonyl)phenyl]-3(2H)-pyridazinone] registered a melting point of 55 to 57 °C. Besides, the inhibition in vivo at 10 mg/kg in series [1] is 14%. In series [2], the IC50 was 950 nM. Besides, the inhibition in vivo at 3 mg/kg in series [3] was 67%. The inhibition at 100 µM in series [5] (setting [8]) came to 0%. The inhibition in vivo at 10 mg/kg in series [7] was 42%.

`Cc1ccc(-n2ncc(-c3ccc(S(C)(=O)=O)cc3)c(-c3ccc(F)cc3)c2=O)s1` [Example 168] registered a melting point of 219 to 224 °C. Besides, the inhibition in vivo at 10 mg/kg in series [1] is 6%. Moreover, in series [2] (setting [9]), the inhibition at 0.1 µM is 93% and the inhibition at 1 µM came out at 85%. Moreover, in series [4] (setting [10]), the inhibition at 1 µM came out at 47%. In addition, the inhibition at 100 µM in series [5] (setting [8]) is 0%. Also, the 50% inhibitory concentration (IC50) in series [6] amounted to 9 nM. Further, in series [7], the inhibition in vivo at 10 mg/kg stood at 0%.

With `CS(=O)(=O)c1ccc(-c2cnn(-c3ccccc3F)c(=O)c2-c2ccc(F)cc2)cc1` [Example 185, 2-(2-Fluorophenyl)-4-(4-fluorophenyl)-5-[4-(methlsulfonyl)phenyl]-3(2H)-pyridazinone], in series [1], the “CPE % Inhib. @ 10 mpk” value stood at 20%. Moreover, the “CAP % Inhib. @ 3 mpk” value in series [3] was determined as 53%. Also, the “CIP % Inhib. @ 10 mpk” value in series [7] is listed as 59%.

For `NS(=O)(=O)c1ccc(-c2cnn(Cc3ccccc3)c(=O)c2-c2ccc(F)cc2)cc1` [Example 384, 2-Benzyl-4-(4-fluorophenyl)-5-[4-(aminosulfonyl)phenyl]-3(2H)-pyridazinone], the melting point was 185 to 189 °C and 188 to 191 °C. Besides, in series [1], the inhibition in vivo at 10 mg/kg amounted to 15%. Moreover, in series [2] (setting [9]), the inhibition at 0.1 µM was 78% and the inhibition at 1 µM came to 99%. Moreover, in series [3], the inhibition in vivo at 3 mg/kg was 51%. For the same compound, the inhibition at 10 µM in series [5] (setting [11]) is 49%. In series [5] (setting [8]), the inhibition at 100 µM was found to be 82%. For the same compound, the inhibition in vivo at 10 mg/kg in series [7] worked out at 51%.

Compound `NS(=O)(=O)c1ccc(-c2cnn(CC(F)(F)F)c(=O)c2-c2ccc(Cl)c(F)c2)cc1` [Example 80, 2-(2,2,2-Trifluoroethyl)-4-(4-chloro-3-fluorophenyl)-5-[4-(aminosulfonyl)phenyl]-3(2H)-pyridazinone] displayed a melting point of 214 to 215 °C. In series [1], the inhibition in vivo at 10 mg/kg was determined as 28.5%. Also, the IC50 in series [2] worked out at 64 nM. Further, the inhibition in vivo at 3 mg/kg in series [3] was determined as 91%. Moreover, the inhibition at 1 µM in series [5] (1 μM, read-out: RHUCX1 % Inh. at Dose) came to 37%. Besides, the inhibition at 10 µM in series [5] (setting [11]) worked out at 41%. Also, the inhibition in vivo at 10 mg/kg in series [7] was found to be 60%.

Regarding `CS(=O)(=O)c1ccc(-c2cnn(C3CCCC3)c(=O)c2-c2ccc(F)cc2)cc1` [Example 121, 2-Cyclopentyl-4-(4-fluorphenyl)-5-[4-(methylsulfonyl)phenyl]-3(2H)-pyridazinone], the “CPE % Inhib. @ 10 mpk” value in series [1] is 8%. The 50% inhibitory concentration (IC50) in series [2] was 5 nM; in series [6], 41 nM. The “RHUCX1 % Inh. at Dose (μM)” value in series [5] (100 μM) was 0 @ 100%. In series [7], the “CIP % Inhib. @ 10 mpk” value is recorded as 19%.

`CS(=O)(=O)c1ccc(-c2cnn(-c3ccc(Cl)cc3)c(=O)c2-c2ccc(F)cc2)cc1` [Example 160, 2-(4-Chlorophenyl)-4-(4-fluorophenyl)-5-[4-(methylsulfonyl)phenyl]-3(2H)-pyridazinone] registered a melting point of 214 to 216 °C. Further, the inhibition in vivo at 10 mg/kg in series [1] came to 35%. In addition, the IC50 in series [4] amounted to 7200 nM. The half-inhibitory concentration (IC50) in series [6] was found to be 30 nM. Besides, in series [7], the inhibition in vivo at 10 mg/kg turned out to be 56%.

For `C[S+]([O-])c1ccc(-c2cnn(CC(F)(F)F)c(=O)c2-c2ccc(Cl)cc2)cc1` (stereo not shown) [Example 77], the melting point fell in the range of 154 to 155 °C. Moreover, the inhibition in vivo at 10 mg/kg in series [1] was determined as 21%. For the same compound, the inhibition at 1 µM in series [2] (setting [9]) was found to be 39%. Moreover, the inhibition at 10 µM in series [2] (10 μM, read-out: RHUCX2 % Inh. at Dose) is 82%. Also, the IC50 in series [4] was determined as 8800 nM. Also, in series [5] (setting [8]), the inhibition at 100 µM came to 35%. The half-inhibitory concentration (IC50) in series [6] worked out at 126 nM. For the same compound, in series [7], the inhibition in vivo at 10 mg/kg came to 51%.

On to `CS(=O)(=O)c1ccc(-c2cnn(C3CCCCC3)c(=O)c2-c2ccc(F)cc2)cc1` [Example 120, 2-Cyclohexyl-4-(4-fluorophenyl)-5-[4-(methylsulfonyl)phenyl]-3(2H)-pyridazinone], for which the melting point lay in the range of 169 to 171 °C. Besides, the inhibition in vivo at 10 mg/kg in series [1] is 11%. For the same compound, in series [2] (setting [9]), the inhibition at 0.1 µM worked out at 45% and the inhibition at 1 µM stood at 97%. The inhibition at 1 µM in series [4] (setting [10]) was determined as 58%. Further, in series [4] (3 μM, read-out: HWPX % Inhib. at Dose), the inhibition at 3 µM worked out at 74%. Besides, the inhibition at 100 µM in series [5] (setting [8]) was determined as 15%. Further, the half-inhibitory concentration (IC50) in series [6] was found to be 25 nM. The inhibition in vivo at 10 mg/kg in series [7] came out at 5%.

Regarding `CCCc1ccc(-c2c(-c3ccc(S(C)(=O)=O)cc3)cnn(CC(F)(F)F)c2=O)cc1` [Example 66, 2-(2,2,2-Trifluoroethyl)-4-(4-n-proylphenl)-5-[4-(methylsulfonyl)phenyl]-3(2H)-pyridazinone], the “CPE % Inhib. @ 10 mpk” value in series [1] was found to be 7%. In addition, the “CAP % Inhib. @ 3 mpk” value in series [3] amounted to 0%. In addition, the “CIP % Inhib. @ 10 mpk” value in series [7] was found to be 59%.
